The text below walks through data of patent publication US20230295234A1, “ANTIMICROBIAL PEPTIDOMIMETICS” (SPEXIS AG, priority 2020, published 2023).

The subject of data set [1] is human red blood cells (hRBC). As to the kind of experiment: Hemolysis of human red blood cells. As to conditions: red cells of human, 1 h. Format: cell-based. In outline:
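Percent hemolysis is OD540 of peptide-treated supernatant relative to water-lysed cells. Each peptide was tested at 200 μg/mL against 20% (v/v) washed human erythrocytes. Incubation was 1 h at 37 °C, 300 rpm.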

Data set [2] concerns Escherichia coli MCR-1 Af 45. As to conditions: MCR-1 Af 45. A digest of the protocol:
(§1)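 First, bacterial colonies are suspended in saline and adjusted to 0.5 McFarland. Next, the suspension is diluted into cation-adjusted Mueller-Hinton II broth (approx. 5×10^5 CFU/mL). Finally, it is added to two-fold serially diluted peptide, with polysorbate 80 at 0.002% final.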

In data set [3] the test system is Escherichia coli ATCC 25922. The following applies: ATCC 25922. In outline:
as §1

Data set [4] relates to Klebsiella pneumoniae SSI3010. The following applies: SSI3010. In outline:
as §1

Bridge positions count the residues as written; N and C are the ends. Square brackets hold non-standard residues; d marks the D form. Peptide text beside a SMILES is read from it. Gly(N-2-aminoethyl) = NCCNCC(=O)O; Gly(N(CH2)3NH2) = NCCCNCC(=O)O; Pen = CC(C)(S)[C@H](N)C(=O)O; dDab = NCC[C@@H](N)C(=O)O; Dab = NCC[C@H](N)C(=O)O; Nlys = NCCCCNCC(=O)O

As for `CC[C@H](C)[C@H](NC(=O)[C@@H](NC(=O)[C@@H]1CCCN1C(=O)[C@@H](NC(=O)CNCCN)C(C)C)[C@@H](C)CC)C(=O)N[C@@H](Cc1ccc(O)cc1)C(=O)N[C@@H]1C(=O)N[C@@H](CC(N)=O)C(=O)N[C@@H](CCCNC(=N)N)C(=O)N[C@@H](CCN)C(=O)N[C@@H]([C@@H](C)O)C(=O)N[C@H](CCN)C(=O)N[C@@H](CCCCN)C(=O)N[C@H](C(=O)N[C@@H](CCN)C(=O)N[C@@H](CCCNC(=N)N)C(=O)N[C@@H](Cc2ccc(O)cc2)C(=O)O)CSSC1(C)C` [Example 27, Ndab-Val-Pro-Ile-Ile-Tyr-Pen-Asn-Arg-Dab-Thr-^DDab-Lys-Cys-Dab-Arg-Tyr] (HELM PEPTIDE1{[NCCNCC(=O)[*:2]].V.P.I.I.Y.[Pen].N.R.[Dab].T.[NCC[C@@H](N[*:1])C(=O)[*:2]].K.C.[Dab].R.Y}$PEPTIDE1,PEPTIDE1,7:R3-14:R3$$$V2.0), the “Hemolysis at 0.2 g/L” value in data set [1] was found to be 0%. Besides, the “Escherichia coli MCR-1 Af 45 MIC” value in data set [2] is 0.0625 µg/mL. The “Escherichia coli ATCC 25922 MIC” value in data set [3] was found to be 0.0625 µg/mL. Besides, in data set [4], the “Klebsiella pneumoniae SSI3010 MIC” value is 0.125 µg/mL.

`CC[C@H](C)[C@H](NC(=O)CN(CCN)C(=O)[C@@H](NC(=O)[C@@H]1CCCN1)C(C)C)C(=O)N[C@H](C(=O)N[C@@H](Cc1ccc(O)cc1)C(=O)N[C@@H]1C(=O)N[C@@H](CC(N)=O)C(=O)N[C@@H](CCCNC(=N)N)C(=O)N[C@@H](CCN)C(=O)N[C@@H]([C@@H](C)O)C(=O)N[C@H](CCN)C(=O)N[C@@H](CCCCN)C(=O)N[C@H](C(=O)N[C@@H](CCN)C(=O)N[C@@H](CCCNC(=N)N)C(=O)N[C@@H](Cc2ccc(O)cc2)C(=O)O)CSSC1(C)C)[C@@H](C)CC` [Example 28, Pro-Val-Ndab-Ile-Ile-Tyr-Pen-Asn-Arg-Dab-Thr-^DDab-Lys-Cys-Dab-Arg-Tyr] (HELM PEPTIDE1{P.V.[NCCN(CC(=O)[*:2])[*:1]].I.I.Y.[Pen].N.R.[Dab].T.[NCC[C@@H](N[*:1])C(=O)[*:2]].K.C.[Dab].R.Y}$PEPTIDE1,PEPTIDE1,7:R3-14:R3$$$V2.0): the “Hemolysis at 0.2 g/L” value in data set [1] is on record as 0%. In data set [2], the “Escherichia coli MCR-1 Af 45 MIC” value came out at 0.125 µg/mL. Besides, the “Escherichia coli ATCC 25922 MIC” value in data set [3] was 0.25 µg/mL. Also, in data set [4], the “Klebsiella pneumoniae SSI3010 MIC” value stood at 0.125 µg/mL.

For the compound `CC[C@H](C)[C@H](NC(=O)CN(CCN)C(=O)[C@@H](NC(=O)CNCCN)C(C)C)C(=O)N[C@H](C(=O)N[C@@H](Cc1ccc(O)cc1)C(=O)N[C@@H]1C(=O)N[C@@H](CC(N)=O)C(=O)N[C@@H](CCCNC(=N)N)C(=O)N[C@@H](CCN)C(=O)N[C@@H]([C@@H](C)O)C(=O)N[C@H](CCN)C(=O)N[C@@H](CCCCN)C(=O)N[C@H](C(=O)N[C@@H](CCN)C(=O)N[C@@H](CCCNC(=N)N)C(=O)N[C@@H](Cc2ccc(O)cc2)C(=O)O)CSSC1(C)C)[C@@H](C)CC` [Example 29, Ndab-Val-Ndab-Ile-Ile-Tyr-Pen-Asn-Arg-Dab-Thr-^DDab-Lys-Cys-Dab-Arg-Tyr] (H-[Gly(N-2-aminoethyl)]V[Gly(N-2-aminoethyl)]IIY[Pen]NR[Dab]T[dDab]KC[Dab]RY-OH; disulfide 7-14), the “Hemolysis at 0.2 g/L” value in data set [1] is on record as 0%. The “Escherichia coli MCR-1 Af 45 MIC” value in data set [2] came to 0.25 µg/mL. Also, in data set [3], the “Escherichia coli ATCC 25922 MIC” value is 0.25 µg/mL. In addition, the “Klebsiella pneumoniae SSI3010 MIC” value in data set [4] was 0.25 µg/mL.

With `CC[C@H](C)[C@H](NC(=O)[C@@H](NC(=O)[C@@H]1CCCN1C(=O)[C@@H](NC(=O)CNC)C(C)C)[C@@H](C)CC)C(=O)N[C@@H](Cc1ccc(O)cc1)C(=O)N[C@H]1CSSC[C@@H](C(=O)N[C@@H](CCN)C(=O)N[C@@H](CCCNC(=N)N)C(=O)N[C@@H](Cc2ccc(O)cc2)C(=O)O)NC(=O)[C@H](CCCCN)NC(=O)[C@@H](CCN)NC(=O)[C@H]([C@@H](C)O)NC(=O)[C@H](CCN)NC(=O)[C@H](CCCNC(=N)N)NC(=O)[C@H](CC(N)=O)NC1=O` [Example 30] (HELM PEPTIDE1{[Sar].V.P.I.I.Y.C.N.R.[Dab].T.[NCC[C@@H](N[*:1])C(=O)[*:2]].K.C.[Dab].R.Y}$PEPTIDE1,PEPTIDE1,7:R3-14:R3$$$V2.0), the “Hemolysis at 0.2 g/L” value in data set [1] is listed as 0%. Moreover, the “Escherichia coli MCR-1 Af 45 MIC” value in data set [2] was found to be 0.125 µg/mL. Besides, in data set [3], the “Escherichia coli ATCC 25922 MIC” value amounted to 0.125 µg/mL. In addition, in data set [4], the “Klebsiella pneumoniae SSI3010 MIC” value was 0.25 µg/mL.

Turning to `CC[C@H](C)[C@H](NC(=O)CN(CCCCN)C(=O)[C@@H](NC(=O)CNCCCCN)C(C)C)C(=O)N[C@H](C(=O)N[C@@H](Cc1ccc(O)cc1)C(=O)N[C@@H]1C(=O)N[C@@H](CC(N)=O)C(=O)N[C@@H](CCCNC(=N)N)C(=O)N[C@@H](CCN)C(=O)N[C@@H]([C@@H](C)O)C(=O)N[C@H](CCN)C(=O)N[C@@H](CCCCN)C(=O)N[C@H](C(=O)N[C@@H](CCN)C(=O)N[C@@H](CCCNC(=N)N)C(=O)N[C@@H](Cc2ccc(O)cc2)C(=O)O)CSSC1(C)C)[C@@H](C)CC` [Example 31, Nlys-Val-Nlys-Ile-Ile-Tyr-Pen-Asn-Arg-Dab-Thr-^DDab-Lys-Cys-Dab-Arg-Tyr] (H-[Nlys]V[Nlys]IIY[Pen]NR[Dab]T[dDab]KC[Dab]RY-OH; disulfide 7-14), the “Hemolysis at 0.2 g/L” value in data set [1] is listed as 0%. Besides, the “Escherichia coli MCR-1 Af 45 MIC” value in data set [2] was determined as 0.0625 µg/mL. The “Escherichia coli ATCC 25922 MIC” value in data set [3] came out at 0.125 µg/mL. The “Klebsiella pneumoniae SSI3010 MIC” value in data set [4] is 0.25 µg/mL.

Take `CC[C@H](C)[C@H](NC(=O)CN(CCCN)C(=O)[C@@H](NC(=O)CNCCCN)C(C)C)C(=O)N[C@H](C(=O)N[C@@H](Cc1ccc(O)cc1)C(=O)N[C@@H]1C(=O)N[C@@H](CC(N)=O)C(=O)N[C@@H](CCCNC(=N)N)C(=O)N[C@@H](CCN)C(=O)N[C@@H]([C@@H](C)O)C(=O)N[C@H](CCN)C(=O)N[C@@H](CCCCN)C(=O)N[C@H](C(=O)N[C@@H](CCN)C(=O)N[C@@H](CCCNC(=N)N)C(=O)N[C@@H](Cc2ccc(O)cc2)C(=O)O)CSSC1(C)C)[C@@H](C)CC` [Example 32, Norn-Val-Norn-Ile-Ile-Tyr-Pen-Asn-Arg-Dab-Thr-^DDab-Lys-Cys-Dab-Arg-Tyr] (H-[Gly(N(CH2)3NH2)]V[Gly(N(CH2)3NH2)]IIY[Pen]NR[Dab]T[dDab]KC[Dab]RY-OH; disulfide 7-14): the “Hemolysis at 0.2 g/L” value in data set [1] turned out to be 0%. The “Escherichia coli MCR-1 Af 45 MIC” value in data set [2] came out at 0.0625 µg/mL. In addition, the “Escherichia coli ATCC 25922 MIC” value in data set [3] turned out to be 0.125 µg/mL. In data set [4], the “Klebsiella pneumoniae SSI3010 MIC” value worked out at 0.125 µg/mL.

Turning to `CC[C@H](C)[C@H](NC(=O)[C@@H]1C[C@@H](O)CN1C(=O)[C@@H](NC(=O)CNCCCN)C(C)C)C(=O)N[C@H](C(=O)N[C@@H](Cc1ccc(O)cc1)C(=O)N[C@@H]1C(=O)N[C@@H](CC(N)=O)C(=O)N[C@@H](CCCNC(=N)N)C(=O)N[C@@H](CCN)C(=O)N[C@@H]([C@@H](C)O)C(=O)N[C@H](CCN)C(=O)N[C@@H](CCCCN)C(=O)N[C@H](C(=O)N[C@@H](CCN)C(=O)N[C@@H](CCCNC(=N)N)C(=O)N[C@@H](Cc2ccc(O)cc2)C(=O)O)CSSC1(C)C)[C@@H](C)O` [Example 33, Norn-Val-Hyp-Ile-Thr-Tyr-Pen-Asn-Arg-Dab-Thr-^DDab-Lys-Cys-Dab-Arg-Tyr] (HELM PEPTIDE1{[NCCCNCC(=O)[*:2]].V.[Hyp].I.T.Y.[Pen].N.R.[Dab].T.[NCC[C@@H](N[*:1])C(=O)[*:2]].K.C.[Dab].R.Y}$PEPTIDE1,PEPTIDE1,7:R3-14:R3$$$V2.0), the “Hemolysis at 0.2 g/L” value in data set [1] worked out at 0%. Further, the “Escherichia coli MCR-1 Af 45 MIC” value in data set [2] was found to be 0.125 µg/mL. For the same compound, in data set [3], the “Escherichia coli ATCC 25922 MIC” value worked out at 0.125 µg/mL. Besides, in data set [4], the “Klebsiella pneumoniae SSI3010 MIC” value was found to be 0.25 µg/mL.
